Source: patent US8629084B2, “Iodine-phenyl-substituted cyclic cetoenols” (Bayer CropScience AG, priority 2004, dated 2014)

Assays:
[1] = logP determination by HPLC on reversed-phase column (C18), EEC Directive 79/831 Annex V.A8; format: physicochemical; conditions: for log P: value in preparation example text
Method: • The logP values given in the Tables and Preparation Examples above are determined in accordance with EEC Directive 79/831 Annex V.A8 by HPLC (High Performance Liquid Chromatography) on a reversed-phase column (C18). Temperature: 43° C.
The determination is carried out in the acidic range at pH 2.3 using the mobile phases 0.1% aqueous phosphoric acid and acetonitrile; linear gradient from 10% acetonitrile to 95% acetonitrile. […]
Calibration is carried out using unbranched alkan-2-ones (having 3 to 16 carbon atoms) with known logP values (determination of the logP values by the retention times using linear interpolation between two successive alkanones).

cereal = experiment: Herbicidal post-emergence action with use of safeners (Example G): container trials with cereal in a greenhouse, mefenpyr 1 day prior to herbicide application; format: in vivo; conditions: without safener
Method: Herbicidal Post-Emergence Action
Seeds of monocotyledonous and dicotyledonous weed and crop plants are placed into sandy loam in wood fiber pots or in plastic pots, covered with soil and cultivated in a greenhouse, during the vegetation period also outdoors outside of the greenhouse, under good growth conditions. Two to three weeks after sowing, the test plants are treated at the one- to three-leaf stage. The test compounds, formulated as wettable powders (WP) or liquid (EC), are, in various dosages at a water application rate of 300 l/ha (converted), with wetting agent (0.2 to 0.3%) added, sprayed onto the plants and the surface of the soil. […]
If it is additionally to be tested as to whether safeners can improve the plant compatibility of test substances in the case of crop plants, the following options are used for applying the safener: • seeds of the crop plants are, before sowing, dressed with the safener substance (the amount of safener stated in percent, based on the weight of the seed) • before the application of the test substances, the crop plants are sprayed with the safener at a certain application rate per hectare (usually 1 day before the application of the test substances) • the safener is applied together with the test substance as a tank mix (the amount of safener is stated in g/ha or as a ratio, based on the herbicide).
By comparing the effect of test substances on crop plants without or with safener treatment, it is possible to assess the effect of the safener substance.
Container Trials with Cereal in a Greenhouse
Mefenpyr 1 day prior to herbicide application

[2] = system: brown plant hopper (Nilaparvata lugens); experiment: Nilaparvata lugens test (hydroponic treatment); format: in vivo; conditions: concentration of 20 ppm
Method: Nilaparvata Lugens Test (Hydroponic Treatment)
Solvents: 78 parts by weight of acetone • • 1.5 parts by weight of dimethylformamide
Emulsifier: 0.5 part by weight of alkylaryl polyglycol ether
To produce a suitable preparation of active compound, 1 part by weight of active compound is mixed with the stated amounts of solvents and emulsifier, and the concentrate is diluted with emulsifier-containing water to the desired concentration.
The active compound preparation is pipetted into water. The stated concentration refers to the amount of active compound per volume unit of water (mg/l=ppm). After the desired period of time, the water is infected with the brown plant hopper (Nilaparvata lugens).
After the desired period of time, the effect in % is determined. 100% means that all plant hoppers have been killed; 0% means that none of the plant hoppers have been killed.

[3] = compounds of formula (I-2-a), HPLC reversed-phase C18, 43° C., acidic range pH 2.3, 0.1% aqueous phosphoric acid/acetonitrile
[4] = compounds of formula (I-2-b), HPLC reversed-phase C18, 43° C., acidic range pH 2.3, 0.1% aqueous phosphoric acid/acetonitrile
[5] = HPLC, reversed-phase C18, 43° C., acidic range pH 2.3 (0.1% aqueous phosphoric acid/acetonitrile)
[6] = summer wheat, 25 g of a.i./ha, 10 days after application
[7] = summer wheat, 50 g of a.i./ha, 10 days after application
[8] = summer wheat, 100 g of a.i./ha, 10 days after application
[9] = HPLC, reversed-phase C18, 43° C., acidic range pH 2.3 (0.1% aqueous phosphoric acid/acetonitrile), table of formula (I-2-c)

CCc1cc(I)cc(C)c1C1=C(O)C(C)(C)OC1=O [I-2-a-7]
logP [1, 3]: 2.81

COC1CCC2(CC1)OC(=O)C(c1ccccc1I)=C2OC(=O)C(C)(C)C (stereo not shown) [Example I-2-b-2]
logP [1, 4]: 3.95

CC(C)OC(=O)OC1=C(c2ccccc2I)C(=O)OC1(C)C [Example I-2-c-1]
log P [1, 5]: 3.47

CCc1cc(I)cc(C)c1C1=C(OC(=O)C(C)C)C(C)(C)OC1=O [I-2-b-8]
logP [1, 4]: 4.72

COC1CCC2(CC1)OC(=O)C(c1c(C)cc(I)cc1C)=C2O (stereo not shown) [Example I-2-a-9]
logP [1, 3]: 2.94

Cc1cc(C)c(C2=C(O)C3(CCC(C)CC3)NC2=O)c(I)c1 (stereo not shown) [Example I-1-a-3]
Summer wheat observed (%) (cereal; summer wheat, 12.5 g of a.i./ha, 10 days after application): 10%
Summer wheat observed (%) (cereal; [6]): 20%
Summer wheat observed (%) (cereal; [7]): 30%
Summer wheat observed (%) (cereal; [8]): 40%

CCc1cc(I)cc(C)c1C1=C(O)C2(CCCC2)OC1=O [I-2-a-8]
logP [1, 3]: 3.00

COC1CCC2(CC1)OC(=O)C(c1cc(C)ccc1I)=C2O (stereo not shown) [Example I-2-a-4]
logP [1, 3]: 2.19

COC1CCC2(CC1)OC(=O)C(c1ccccc1I)=C2O (stereo not shown) [Example I-2-a-2]
efficacy (plant hoppers killed) [2]: ≥ 80%
logP [1, 3]: 1.92

COC1CCC2(CC1)OC(=O)C(c1ccccc1I)=C2OC(=O)OC(C)C (stereo not shown) [I-2-c-2]
logP [1, 9]: 3.54

CCc1cc(I)cc(C)c1C1=C(OC(=O)OC(C)C)C2(CCC(OC)CC2)OC1=O (stereo not shown) [I-2-c-4]
logP [1, 9]: 4.77

CC(C)C(=O)OC1=C(c2ccccc2I)C(=O)OC1(C)C [Example I-2-b-1]
log P [1, 5]: 3.53

COC1CCC2(CC1)OC(=O)C(c1c(C)cc(I)cc1C)=C2OC(=O)C(C)(C)C (single isomer, unassigned) [Example I-2-b-13]
logP [1, 4]: 4.9

CCc1cc(I)cc(C)c1C1=C(O)C2(CCC(OC)CC2)OC1=O (stereo not shown) [Example I-2-a-6]
logP [1, 3]: 2.92

COC1CCC2(CC1)OC(=O)C(c1cc(C)ccc1I)=C2OC(=O)C(C)(C)C (single isomer, unassigned) [Example I-2-b-6]
logP [1, 4]: 4.57

CCOC(=O)OC1=C(c2c(C)cc(I)cc2CC)C(=O)NC12CCC(OC)CC2 (stereo not shown) [Example I-1-c-1]
Summer wheat observed (%) (cereal; the 20th table, summer wheat, 12.5 g of a.i./ha, 10 days after application): 50%

CCc1cc(I)cc(C)c1C1=C(OC(=O)C(C)C)C2(CCC(OC)CC2)OC1=O (stereo not shown) [Example I-2-b-10]
Summer wheat observed (%) (cereal; [6]): 15%
Summer wheat observed (%) (cereal; summer wheat, 25 g of a.i./ha, 28 days after application): 25%
Summer wheat observed (%) (cereal; [7]): 30%
Summer wheat observed (%) (cereal; summer wheat, 50 g of a.i./ha, 28 days after application): 40%
Summer wheat observed (%) (cereal; [8]): 50%
Summer wheat observed (%) (cereal; summer wheat, 100 g of a.i./ha, 28 days after application): 50%
Summer wheat observed (%) (cereal; summer wheat, 200 g of a.i./ha, 10 days after application): 70%
Summer wheat observed (%) (cereal; summer wheat, 200 g of a.i./ha, 28 days after application): 75%
Summer wheat observed (%) (cereal; the 21st table second column (also headed Summer wheat), 25 g of a.i./ha, 10 days after application): 60%
Summer wheat observed (%) (cereal; the 21st table second column (also headed Summer wheat), 50 g of a.i./ha, 10 days after application): 65%
logP [1, 4]: 4.79

COC1CCC2(CC1)OC(=O)C(c1cc(C)ccc1I)=C2OC(=O)C(C)(C)C (single isomer, unassigned) [Example I-2-b-7]
logP [1, 4]: 4.24

Cc1ccc(I)c(C2=C(O)C3(CCCC3)OC2=O)c1 [I-2-a-3]
logP [1, 3]: 2.51

COC1CCC2(CC1)OC(=O)C(c1ccccc1I)=C2OC(=O)C(C)C (stereo not shown) [Example I-2-b-3]
logP [1, 4]: 3.6

CCc1cc(I)cc(C)c1C1=C(OC(=O)OC(C)C)C2(CCOCC2)OC1=O [I-2-c-5]
logP [1, 9]: 4.41

CCc1cc(I)cc(C)c1C1=C(OC(=O)OC(C)C)C(C)(C)OC1=O [I-2-c-3]
logP [1, 9]: 4.66

COC1CCC2(CC1)OC(=O)C(c1c(C)cc(I)cc1C)=C2OC(=O)C(C)(C)C (single isomer, unassigned) [Example I-2-b-12]
logP [1, 4]: 5.21

CCc1cc(I)cc(C)c1C1=C(O)C2(CCOCC2)OC1=O [Example I-2-a-5]
logP [1, 3]: 2.63

Cc1ccc(I)c(C2=C(OC(=O)C(C)(C)C)C3(CCCC3)OC2=O)c1 [Example I-2-b-5]
logP [1, 4]: 4.68

CC(C)(C)C(=O)OC1=C(c2ccccc2I)C(=O)OC1(C)C [Example I-2-b-4]
logP [1, 4]: 3.87

CC1(C)OC(=O)C(c2ccccc2I)=C1O [Example I-2-a-1]
log P [1, 5]: 1.80

CCc1cc(I)cc(C)c1C1=C(OC(=O)C(C)C)C2(CCOCC2)OC1=O [Example I-2-b-9]
logP [1, 4]: 4.42

Cc1cc(I)cc(C)c1C1=C(OC(=O)C(C)(C)C)C2(CCCC2)OC1=O [Example I-2-b-11]
logP [1, 4]: 5.26
